Experimental data published in PMC9158485, “Highly Efficient Biotransformation of Phenolic Glycosides Using a Recombinant β-Glucosidase From White Rot Fungus Trametes trogii” (Frontiers in Microbiology, 2022).

System: T1, TtBgl3
T1 construct: calculated 97 kDa; primer-encoded N-terminus MSRDFL, C-terminus FTWNGV; GH3, GH3_C and Fn3-like domains
Experiment: release of 4-nitrophenol at […] nm, Lineweaver-Burk
Format: biochemical, Trametes trogii
Conditions: 50°C, pH 5.5 (methods: phosphate citrate buffer 200 mM, pH 5.0, 55°C)

Km: 550 µM
SMILES: O=[N+]([O-])c1ccc(O[C@@H]2O[C@H](CO)[C@@H](O)[C@H](O)[C@H]2O)cc1 [4-nitrophenyl β-D-glucopyranoside]
